Measurements taken from patent US20240025900A1, “TETRACYCLIC COMPOUNDS AS DGK INHIBITORS” (Incyte Corporation, priority 2022, published 2024).

Key:
DGKα = DGKα (Homo sapiens (Human), UniProt P23743); experiment: In vitro DGKα inhibition assay (ADP-Glo); type: biochemical; settings: His-tagged human recombinant DGKα 0.1 nM, 50 μM ATP, 20 μM DLG
Description: (§1) The DGKα and DGKζ biochemical reactions were performed using His-tagged human recombinant enzymes (Signal Chem, DGKα, #D21-10BH; DGKζ, #D30-10H)) and DLG (Dilauroyl-sn-glycerol) lipid substrate (Signal Chem, #D430-59). ADP-Glo assay was performed using ADP-Glo™ kinase Assay kit (Promega, #V9104). The reactions were carried out in assay buffer containing 40 mM Tris, pH 7.5, 0.1% CHAPS, 0.1% Prionex, 40 mM NaCl, 5 mM MgCl2, 1 mM CaCl2, and 1 mM DTT. DGKα reactions contained 0.1 nM DGKα, 50 μM ATP, and 20 μM DLG. And DGKζ reactions contained 0.4 nM DGKζ, 30 μM ATP, and 20 μM DLG.
(§2) For compound inhibition studies, 40 nL test compound in DMSO was added to wells of white polystyrene plates in 384-well (Greiner, #784075) or 1536-well format (Greiner, #782075). Compounds were added with top concentration of 2 mM with 11 point, 3-fold dilution series. Enzyme solution (contains 2×DGK enzyme concentration in 1× assay buffer) was added to the plate in 2 μL/well volume, followed by 2 μL/well of substrate solution (contains 2×concentration of ATP and DLG substrate in 1× assay buffer). Plates were then centrifuged for 1 min at 1200 RPM and sealed or lidded. For 4 μL reaction volume, test compounds were therefore diluted 100× to final top concentration of 20 μM. After 90 minute incubation, reactions were quenched by addition of 2 μL/well Promega ADP-Glo Reagent, followed by centrifugation and lidding. After 60 min incubation, 2 μL/well Promega Kinase Detection Reagent was added, plates centrifuged, and incubated for 30 min. Plates were then read using Luminescence method on BMG PHERAstar FSX plate reader. Percent inhibition was calculated and IC50s were determined using 4-parameter fit in Genedata Screener. Labcyte Echo acoustic dispenser was used for compound addition, and Formulatrix Tempest liquid handler was used for all reagent dispenses.

DGKζ = DGKζ (Homo sapiens (Human), UniProt Q13574); experiment: In vitro DGKζ inhibition assay (ADP-Glo); type: biochemical; settings: His-tagged human recombinant DGKζ 0.4 nM, 30 μM ATP, 20 μM DLG
Description: as §1, §2

Chain of DGKα (P23743 whole entry): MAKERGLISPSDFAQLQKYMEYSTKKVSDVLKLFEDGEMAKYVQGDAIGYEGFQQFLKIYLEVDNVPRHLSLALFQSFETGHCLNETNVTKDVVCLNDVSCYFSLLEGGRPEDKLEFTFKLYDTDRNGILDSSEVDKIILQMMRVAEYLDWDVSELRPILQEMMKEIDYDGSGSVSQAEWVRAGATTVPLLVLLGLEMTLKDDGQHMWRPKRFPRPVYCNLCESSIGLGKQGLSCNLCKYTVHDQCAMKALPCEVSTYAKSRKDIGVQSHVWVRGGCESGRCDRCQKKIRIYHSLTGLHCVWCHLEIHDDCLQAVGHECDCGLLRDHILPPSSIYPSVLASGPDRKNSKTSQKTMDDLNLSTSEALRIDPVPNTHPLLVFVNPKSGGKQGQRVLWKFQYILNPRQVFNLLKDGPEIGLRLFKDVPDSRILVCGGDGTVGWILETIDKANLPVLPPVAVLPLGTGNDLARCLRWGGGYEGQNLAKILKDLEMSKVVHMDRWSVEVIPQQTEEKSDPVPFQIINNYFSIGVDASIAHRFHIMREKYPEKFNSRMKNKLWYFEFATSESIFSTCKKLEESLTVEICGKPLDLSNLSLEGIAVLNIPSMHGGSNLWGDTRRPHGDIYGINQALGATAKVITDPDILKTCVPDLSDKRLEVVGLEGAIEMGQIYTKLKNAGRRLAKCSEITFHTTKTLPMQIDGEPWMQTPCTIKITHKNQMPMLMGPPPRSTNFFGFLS
Chain of DGKζ (Q13574 whole entry): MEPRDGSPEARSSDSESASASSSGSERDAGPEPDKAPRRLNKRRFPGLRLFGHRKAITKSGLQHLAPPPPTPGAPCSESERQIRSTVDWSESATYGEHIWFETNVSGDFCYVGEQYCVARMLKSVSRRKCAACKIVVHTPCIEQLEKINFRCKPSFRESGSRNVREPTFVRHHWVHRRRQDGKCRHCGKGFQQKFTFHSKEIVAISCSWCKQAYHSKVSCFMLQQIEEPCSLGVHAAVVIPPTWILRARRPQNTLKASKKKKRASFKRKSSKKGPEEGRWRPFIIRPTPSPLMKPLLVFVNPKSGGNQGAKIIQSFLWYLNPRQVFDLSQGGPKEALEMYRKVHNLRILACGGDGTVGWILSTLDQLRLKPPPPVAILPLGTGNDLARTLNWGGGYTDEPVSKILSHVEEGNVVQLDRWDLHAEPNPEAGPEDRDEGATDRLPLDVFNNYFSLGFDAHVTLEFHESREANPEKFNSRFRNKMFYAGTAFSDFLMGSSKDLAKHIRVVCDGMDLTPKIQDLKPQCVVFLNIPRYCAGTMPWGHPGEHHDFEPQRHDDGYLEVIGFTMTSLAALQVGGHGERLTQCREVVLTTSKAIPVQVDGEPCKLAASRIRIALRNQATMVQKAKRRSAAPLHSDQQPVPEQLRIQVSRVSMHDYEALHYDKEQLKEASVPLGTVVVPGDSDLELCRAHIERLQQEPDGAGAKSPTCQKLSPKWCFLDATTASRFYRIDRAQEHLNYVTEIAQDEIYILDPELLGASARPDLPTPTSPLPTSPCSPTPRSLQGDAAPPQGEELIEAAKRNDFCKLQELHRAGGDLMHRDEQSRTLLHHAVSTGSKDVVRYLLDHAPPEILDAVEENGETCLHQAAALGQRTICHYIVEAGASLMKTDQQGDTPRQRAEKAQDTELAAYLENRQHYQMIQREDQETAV

SMILES | IC50 (DGKα) | IC50 (DGKζ)
CN1C(=O)CC2CN(C(c3ccc(F)cc3)c3ccc(F)cc3)CCN2c2c1c(=O)n(C)c1ccc(C#N)nc21 (single isomer, unassigned) [Example 2, 11-(Bis(4-fluorophenyl)methyl)-5,7-dimethyl-6,8-dioxo-5,6,7,8,9,9a,10,11,12,13-decahydropyrazino[1′,2′: 4,5][1,4]diazepino[2,3-c][1,5]naphthyridine-2-carbonitrile] | 40 to 200 nM | ≤ 40 nM
C[C@@H]1CN2c3c(c(=O)n(C)c4ccc(C#N)nc34)C(=O)OC[C@H]2CN1C(c1ccc(F)cc1)c1ccc(F)cc1 [Example 7, (9aR,12R)-11-(Bis(4-fluorophenyl)methyl)-5,12-dimethyl-6,7-dioxo-5,7,9,9a,10,11,12,13-octahydro-6H-pyrazino[2′,1′:3,4][1,4]oxazepino[6,5-c][1,5]naphthyridine-2-carbonitrile] | ≤ 40 nM | 200 to 2000 nM
Cn1c(=O)c2c(c3ncc(C#N)cc31)N1CCN(C(c3ccc(F)cc3)c3ccc(F)cc3)C[C@@H]1COC2=O [Example 9, (R)-11-(Bis(4-fluorophenyl)methyl)-5-methyl-6,7-dioxo-5,7,9,9a,10,11,12,13-octahydro-6H-pyrazino[2′,1′:3,4][1,4]oxazepino[6,5-c][1,5]naphthyridine-3-carbonitrile] | ≤ 40 nM | > 2000 nM
Cn1c(=O)c2c(c3nc(CC#N)ccc31)N1CCN(C(c3ccc(F)cc3)c3ccc(F)cc3)C[C@@H]1COC2=O [Example 4, (R)-2-(11-(Bis(4-fluorophenyl)methyl)-5-methyl-6,7-dioxo-5,7,9,9a,10,11,12,13-octahydro-6H-pyrazino[2′,1′:3,4][1,4]oxazepino[6,5-c][1,5]naphthyridin-2-yl)acetonitrile] | ≤ 40 nM | ≤ 40 nM
Cn1c(=O)c2c(c3nc(C#N)ccc31)N1CCN(C(c3ccc(F)cc3)c3ccc(F)cc3)C[C@@H]1COC2=O [Example 3, (R)-11-(Bis(4-fluorophenyl)methyl)-5-methyl-6,7-dioxo-5,7,9,9a,10,11,12,13-octahydro-6H-pyrazino[2′,1′:3,4][1,4]oxazepino[6,5-c][1,5]naphthyridine-2-carbonitrile] | ≤ 40 nM | ≤ 40 nM
Cn1c(=O)c2c(c3ncc(CC#N)cc31)N1CCN(C(c3ccc(F)cc3)c3ccc(F)cc3)C[C@@H]1COC2=O [Example 10, (R)-2-(11-(Bis(4-fluorophenyl)methyl)-5-methyl-6,7-dioxo-5,7,9,9a,10,11,12,13-octahydro-6H-pyrazino[2′,1′:3,4][1,4]oxazepino[6,5-c][1,5]naphthyridin-3-yl)acetonitrile] |  | > 2000 nM
Cn1c(=O)c2c(c3cc(CC#N)ccc31)N1CCN(C(c3ccc(F)cc3)c3ccc(F)cc3)C[C@@H]1COC2=O [Example 8, (R)-2-(3-(Bis(4-fluorophenyl)methyl)-9-methyl-7,8-dioxo-1,2,3,4,4a,5,8,9-octahydro-7H-pyrazino[2′,1′:3,4][1,4]oxazepino[6,5-c]quinolin-12-yl)acetonitrile] |  | 40 to 200 nM
Cn1c(=O)c2c(c3nc(CC#N)cnc31)N1CCN(C(c3ccc(F)cc3)c3ccc(F)cc3)C[C@@H]1COC2=O [Example 5, (R)-2-(11-(Bis(4-fluorophenyl)methyl)-5-methyl-6,7-dioxo-5,7,9,9a,10,11,12,13-octahydro-6H-pyrazino[2,1-c]pyrazino[2′,3′: 5,6]pyrido[4,3-e][1,4]oxazepin-2-yl)acetonitrile] | 40 to 200 nM | 40 to 200 nM
CN1C(=O)CC2CN(C(c3ccc(F)cc3)c3ccc(F)cc3)CCN2c2c1c(=O)n(C)c1ccc(C#N)nc21 (single isomer, unassigned) [Example 1, 11-(Bis(4-fluorophenyl)methyl)-5,7-dimethyl-6,8-dioxo-5,6,7,8,9,9a,10,11,12,13-decahydropyrazino[1′,2′: 4,5][1,4]diazepino[2,3-c][1,5]naphthyridine-2-carbonitrile] | ≤ 40 nM | 200 to 2000 nM
Cn1c(=O)c2c(c3nc(C#N)ccc31)N1CCN(C(c3ccc(F)cc3)c3ccc(F)cc3)C[C@H]1COC2=O [Example 6, (S)-11-(Bis(4-fluorophenyl)methyl)-5-methyl-6,7-dioxo-5,7,9,9a,10,11,12,13-octahydro-6H-pyrazino[2′,1′:3,4][1,4]oxazepino[6,5-c][1,5]naphthyridine-2-carbonitrile] | ≤ 40 nM | ≤ 40 nM
